In PubChem BioAssay (NCI):
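Where inhibition never reached the appropriate level, the endpoint shown equals the highest concentration tested. Otherwise, values were interpolated linearly from a five-concentration, 48-hour dose response in 96-well plates. Abbreviation: GI50, concentration required for 50% inhibition of growth. TGI: concentration producing complete growth inhibition.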

What was measured:
Test in all cases: inhibition of tumour cell growth, NCI panel, 48 h
DU-145 prostate = test system: DU-145 prostate
A549 NSCLC = test system: A549 NSCLC
SF-295 CNS = test system: SF-295 CNS
OVCAR-8 ovarian = test system: OVCAR-8 ovarian
T-47D breast = test system: T-47D breast
A498 renal = test system: A498 renal
SK-MEL-2 melanoma = test system: SK-MEL-2 melanoma

| Compound | GI50 (DU-145 prostate) [nM] | TGI (DU-145 prostate) [µM] | GI50 (A549 NSCLC) [nM] | TGI (A549 NSCLC) [µM] | GI50 (SF-295 CNS) [nM] | TGI (SF-295 CNS) [µM] | GI50 (OVCAR-8 ovarian) [nM] | TGI (OVCAR-8 ovarian) [µM] | GI50 (T-47D breast) [µM] | TGI (T-47D breast) [µM] | GI50 (A498 renal) [nM] | TGI (A498 renal) [µM] | GI50 (SK-MEL-2 melanoma) [µM] | TGI (SK-MEL-2 melanoma) [µM] |
| --- | --- | --- | --- | --- | --- | --- | --- | --- | --- | --- | --- | --- | --- | --- |
| CCN(CC)CCN1CC(O)=C(c2nc(-c3ccc(Cl)cc3)cs2)C1=N | 7260 | 62.4 | 3620 | 17.8 | 1800 | 3.49 | 5610 | > 100 | 2.19 | 5.11 | 1720 | 3.47 | 16.9 | > 100 |
| CN(C)CCNC(=O)c1cccc(C(=O)Nc2ccccc2)c1[N+](=O)[O-] |  | > 100 |  | > 100 |  | > 100 |  | > 100 |  | > 100 |  | > 100 |  | > 100 |
| O=C(CCl)Nc1ccc(Cl)cc1 | 4920 | 17.4 | 11200 | 26.9 | 3450 | 13.3 | 4600 | > 100 | 3.8 | 15.6 | 10400 | 22.4 | 2.51 | 6.16 |
| COc1cc[nH]c1/C=C1\C(=O)Nc2ccccc21 | 9370 | > 25 | 11100 | > 25 | > 25000 | > 25 | 14200 | > 25 | 4.05 | > 25 | 5340 | > 25 | 3.55 | 15.7 |
| COc1ccc(C(=O)c2cc(C)c(OC)c(C)c2)c(OC)c1N(C(=O)C(Cl)Cl)C(=O)C(Cl)Cl | 39.2 | > 100 | 80.4 | > 100 | 32.3 | > 100 | 55.8 | > 100 |  |  | < 15.6 | 0.0736 | 0.0669 | > 100 |
| Cc1cc(SCC(=O)c2ccccc2)nc2ccccc12 |  | > 100 |  | > 100 |  | > 100 |  | > 100 |  | > 100 |  | > 100 |  | > 100 |
| COc1ccc(OC)c(/C=C/C(=O)N/N=C/c2ccc(Cl)cc2)c1 | 180 | > 29 | 242 | > 100 | 70.1 | > 25.4 | 350 | > 100 | 0.0786 | > 65.8 | 111 | 36.6 | 1.06 | > 100 |
| CCc1[nH]c(=O)nc(N)c1-c1ccc(N2CCCCC2)c([N+](=O)[O-])c1 |  | > 100 |  | > 100 |  | > 100 |  | > 100 |  | > 100 |  | > 100 |  | > 100 |
| CC(=O)OC1Oc2ccccc2-c2oc(=O)c(-c3cc4ccc(N(C)C)cc4oc3=O)cc21 (stereo not given) | 12000 | 27.7 | 12500 | 36.9 | 4570 | 21 | 10300 | 37.7 | 4.34 | 30.1 | 6910 | 26.5 | 8.61 | 29.9 |
| O=C(N/N=C/c1cccc(O)c1O)c1ccccc1 | 1150 | > 100 | 2010 | > 100 | 2280 | > 100 | 587 | > 100 | 2.65 | > 100 | 6280 | 65.4 | 11.7 | > 100 |
| O=C(c1cccc(O)c1O)c1cn(Cc2ccc(F)cc2)c2cccc(O)c12 | 5100 | 17.3 | 3310 | 16.7 | 5650 | > 46.5 | 3560 | 18.9 | 3.16 | 16.2 | 12900 | 25.6 | 7.93 | 23.2 |
| CC1CN1CC(O)C(O)CN1CC1C (stereo not given) | 480 | 9.28 | 2080 | 33 | 494 | > 33.4 | 1130 | > 71.2 | 2.87 | > 71.4 | 3610 | 16.8 | 8.58 | > 64.2 |
| CCS(=O)(=O)c1ccc(OC)c(Nc2ncc(-c3cccc(OC)c3)o2)c1 | 9990 | > 25 | 8750 | > 25 | 9720 | > 25 | 9660 | > 25 | 8.18 | > 25 | 728 | 4.28 | 13.2 | > 25 |
| COc1cc(C2=NN(C(C)=O)C(c3ccc(OC(C)=O)cc3OC(C)=O)O2)c(OC(C)=O)c2ccccc12 (stereo not given) | 683 | > 100 | 1570 | 28.4 | 1680 | 23.8 | 426 | 33.7 | 1.12 | 9.97 | 1590 | 11.6 | 10.8 | 49.4 |
| COc1cc2oc(-c3ccc(O)cc3)cc(=O)c2c(OC)c1OC |  | > 100 |  | > 100 |  | > 100 |  | > 100 |  | > 100 |  | > 100 |  |  |
| O=C1c2ccccc2-c2c1c1ccccc1c(=O)n2Cc1ccccc1 |  | > 100 |  | > 100 |  | > 100 |  | > 100 |  | > 100 |  | > 100 |  | > 100 |
| CN(C)CCCn1c2c(c3ccccc3c1=O)C(=O)c1ccccc1-2 | 1330 | 8.54 | 650 | 3.14 | 1120 | 3.74 | 336 | 1.34 | 3.01 | 14.8 | 5990 | 22.1 | 13.1 | > 100 |
| Nc1ncc(-c2cnn(CCO)c2)c2scc(-c3ccc(NC(=O)Nc4cccc(F)c4)cc3)c12 | 520 | 11.6 | 125 | 1.5 | < 37.3 | 0.762 | 253 | 2.39 | 1.32 | 5.93 | 122 | 0.663 | 0.364 | 1.66 |
| COC(=O)Nc1nc2ccc(Oc3ccc(NC(=O)Nc4ccccc4)cc3)cc2[nH]1 | 254 | 3.1 | 533 | 5.32 | 121 | 2.23 | 545 | 8.04 | 0.131 | 21.7 | 141 | 4.97 | 0.109 | 2.19 |

| Compound | GI50 (DU-145 prostate) [nM] | TGI (DU-145 prostate) [µM] | GI50 (A549 NSCLC) [nM] | TGI (A549 NSCLC) [µM] | GI50 (SF-295 CNS) [nM] | TGI (SF-295 CNS) [µM] | GI50 (OVCAR-8 ovarian) [nM] | TGI (OVCAR-8 ovarian) [µM] | GI50 (T-47D breast) [µM] | TGI (T-47D breast) [µM] | GI50 (A498 renal) [nM] | TGI (A498 renal) [µM] | GI50 (SK-MEL-2 melanoma) [µM] | TGI (SK-MEL-2 melanoma) [µM] |
| --- | --- | --- | --- | --- | --- | --- | --- | --- | --- | --- | --- | --- | --- | --- |
| NCCCC[C@@H]1NC(=O)[C@H]2CCCN2C(=O)[C@H](Cc2ccccc2)NC(=O)[C@H](Cc2ccccc2)CNC1=O | > 100000 | > 100 | > 100000 | > 100 | > 100000 | > 100 | > 100000 | > 100 | > 100 | > 100 | > 100000 | > 100 | > 100 | > 100 |
| CCN1C(=O)CNc2ncc(-c3ccc(-c4ncn[nH]4)nc3C)nc21 | 253 | 12.7 | 263 | 7.24 | 105 | 0.679 | 385 | 5.23 | 0.0169 | 0.185 | 13 | 0.0613 | 0.162 | 0.711 |
| CCN(CC)c1sc(N(CC)CC)c2c1SSSSS2 | 1800 | 3.37 | 1840 | 3.64 | 2090 | 4.04 | 2180 | 4.7 | 3.17 | > 100 | 2030 | 3.54 | 3.02 | 14.6 |
| Fc1cc(F)c(COc2cc(Cn3cnc4c(Cl)nc(Cl)nc43)ccc2C23CC4CC(CC(C4)C2)C3)cc1F | 17100 | 30.8 | 28000 | 76.7 | 18000 | 34 | 18000 | 38.4 | 16.7 | 45.1 | 99200 | > 100 | 21 | 56.1 |
| Cc1ccc(/C(=C/C=C(C#N)C#N)Sc2ccc(Cl)cc2)cc1 | 3950 | 11.3 | 12400 | 28 | 4070 | 16.8 | 11400 | 32.4 | 18.8 | 56.5 | 19400 | 34.8 |  |  |
| NC(=S)N/N=C/c1ccc(OC(=O)COc2ccc(Cl)cc2)cn1 | 2460 | 8.65 | 34500 | > 100 | 20800 | > 100 | 3630 | > 100 | 8.62 | > 100 | 11900 | 71 | 9.69 | > 100 |
| CCS(=O)(=O)c1ccc(OC)c(Nc2ncc(-c3cccc(C(C)=O)c3)o2)c1 | > 25000 | > 25 | > 25000 | > 25 | 23100 | > 25 | > 25000 | > 25 | 16.7 | > 25 | 600 | 5.88 | > 25 | > 25 |
| COC(=O)C(=O)C(C(=O)C(=O)Nc1ccccc1C(N)=O)c1nc2ccc(Cl)cc2[nH]c1=O (stereo not given) |  | > 100 |  | > 100 |  | > 100 |  | > 100 |  | > 100 |  | > 100 |  | > 100 |
| COc1ccc(C(=O)COc2cccc(/C=C3\COc4ccc5ccccc5c4C3=O)c2)cc1 | 4250 | > 100 | > 100000 | > 100 | 2870 | 63.6 | 4500 | > 100 | 3.88 | > 100 | 12200 | 87 | 5.83 | > 100 |
| O=C(Nc1ccc(Cl)cc1)c1cc(-c2ccc(F)cc2)c2sc(=O)[nH]c2n1 | 3700 | 28.9 | 2450 | 10.1 | 1100 | 3.8 | 1720 | 4.93 | 0.739 | 5.25 | 465 | 3.35 | 1.59 | 3.93 |
| CC(=O)OC1CC(O)C23COC(O)C1(C)C2CC(O)C1(C)C3C(=O)C(O)C2(C)C(c3ccoc3)CC3OC321 (stereo not given) | 900 | > 100 | 67.4 | > 100 | 52.2 |  | 191 |  | 0.151 | > 100 | > 100000 | > 100 |  | > 100 |
| CCN(CC)c1ccc(C(=N)c2ccc(N(CC)CC)cc2)cc1 | 467 | 2.65 | 625 | 5.94 | 438 | 2.02 | 905 | 3.75 | 0.311 | 1.73 | 575 | 2.38 | 0.423 | 1.52 |
| CCC#CC[C@H]1C/C=C2/C(=O)C=C[C@@H]2C/C=C\CCCC(=O)O1 | 1370 | 6.24 | 1240 | 4.03 | 1430 | 4.36 | 783 | 9.71 | 1.35 | 10.2 | 1080 | 2.49 | 1.17 | 3.52 |
| COc1ccc2c(c1)C(=O)c1c-2n(CCCn2ccnc2)c(=O)c2ccccc12 | 247 | 4.66 | 511 | 4.66 | 101 | 2.13 | 602 | > 69.2 | 0.399 | 5.68 | 471 | 1.76 | 0.843 | 8.82 |
| Cc1ccc(C(=NN=C(N)N)c2ccc(C)cc2)cc1 | 313 | 1.16 | 451 | 7.09 | 284 | 0.945 | 773 | 3.59 | 0.869 | 10.9 | 395 | 2.61 | 0.78 | 2.94 |
| Cc1cn2c(/C=C3/C(=O)N(C)c4ccccc43)c(C)nc2s1 | 27400 | > 100 | 12800 | > 100 |  |  | 29200 | > 100 | 4.49 | > 100 | 11900 | 79.5 | 5.33 | 58.3 |
| CC12CCCC(O)C1CCC1=CC3(CCC12)SCCS3 (stereo not given) |  | > 10 |  | > 10 |  | > 10 |  | > 10 |  | > 10 |  |  |  |  |
| NC(N)=NCCCn1c2c(c3ccccc3c1=O)C(=O)c1ccccc1-2 | 7590 | 22.9 | 27100 | > 100 | 1660 | 7.72 | 36000 | > 100 | 22.9 | 66.6 |  |  | 19.5 | 33.6 |
